According to ChEMBL document CHEMBL1201862, “PubChem BioAssay data set” (2004):
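These data come from cells grown in 96-well plates and exposed to compound for 48 hours at five concentrations. Abbreviation: GI50, concentration required for 50% inhibition of growth.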 Activity calls are given as the source filed them. No stated cut-off is given here; in the data, active = GI50 up to about 1.1 µM and inactive = higher.

How the values were obtained:
Assay in all cases: NCI tumour cell line growth inhibition, 48 h
RXF 393 = system: RXF 393
OVCAR-4 = system: OVCAR-4
SF-539 = system: SF-539
SR = system: SR
786-0 = system: 786-0
Malme-3M = system: Malme-3M
CAKI-1 = system: CAKI-1
M19-MEL = system: M19-MEL
SNB-19 = system: SNB-19
K562 = system: K562
ACHN = system: ACHN
NCI-H226 = system: NCI-H226
KM12 = system: KM12
SK-MEL-2 = system: SK-MEL-2
UO-31 = system: UO-31
LOX IMVI = system: LOX IMVI

Measured: GI50

Cc1[nH]c2ccccc2c1C1=NO/C(=N\O)C(c2c(C)[nH]c3ccccc23)C1 (stereo not drawn)
inactive: RXF 393 23.3 µM | OVCAR-4 39.1 µM | SF-539 23.6 µM | SR 23.8 µM | 786-0 40.7 µM | Malme-3M 53.2 µM | CAKI-1 36.1 µM | M19-MEL 41.3 µM | SNB-19 72.8 µM | K562 33.2 µM | ACHN 28.6 µM | NCI-H226 37.7 µM | KM12 38 µM | SK-MEL-2 40 µM | UO-31 26.9 µM

C=C[C@@]12CCCCC1C/C(=C(/O)OC)C(=O)C2 (stereo partly drawn)
inactive: RXF 393 > 100 µM | OVCAR-4 > 100 µM | SF-539 > 100 µM | SR > 100 µM | 786-0 > 100 µM | LOX IMVI > 100 µM | CAKI-1 > 100 µM | M19-MEL > 100 µM | SNB-19 > 100 µM | K562 > 100 µM | ACHN > 100 µM | NCI-H226 > 100 µM | KM12 > 100 µM | SK-MEL-2 > 100 µM | UO-31 > 100 µM

COC(=O)C1=C(C(=O)OC)C2(C)OC1C(=O)C21CC1 (stereo not drawn)
inactive: RXF 393 16.8 µM | OVCAR-4 10.6 µM | SF-539 20.7 µM | SR 19 µM | 786-0 38.7 µM | Malme-3M 23.9 µM | LOX IMVI 18.8 µM | CAKI-1 18.6 µM | M19-MEL 71 µM | SNB-19 > 100 µM | K562 19.8 µM | ACHN 19.3 µM | NCI-H226 > 100 µM | KM12 30.5 µM | SK-MEL-2 > 100 µM | UO-31 79.6 µM

CCOc1cc2cnc3c4cc(OC)c(OC)cc4ccc3c2cc1OC
inactive: RXF 393 > 100 µM | OVCAR-4 86.7 µM | SF-539 > 100 µM | SR 27.3 µM | 786-0 > 100 µM | Malme-3M 90.4 µM | LOX IMVI 65 µM | CAKI-1 > 100 µM | M19-MEL 39.8 µM | SNB-19 19.4 µM | K562 20.7 µM | ACHN > 100 µM | NCI-H226 > 100 µM | KM12 46.9 µM | SK-MEL-2 69 µM | UO-31 > 100 µM

OCn1nc2c(C3OCCO3)cc3ccccc3n2c1=S
inactive: RXF 393 > 100 µM | OVCAR-4 > 100 µM | SF-539 > 100 µM | SR > 100 µM | 786-0 > 100 µM | Malme-3M > 100 µM | LOX IMVI > 100 µM | CAKI-1 > 100 µM | M19-MEL > 100 µM | SNB-19 > 100 µM | K562 > 100 µM | ACHN > 100 µM | NCI-H226 > 100 µM | KM12 > 100 µM | SK-MEL-2 > 100 µM | UO-31 > 100 µM

CC(C)=CCC/C(C)=C/CC/C(C)=C/Cc1c(O)c2ccccc2oc1=O
inactive: RXF 393 99.1 µM | OVCAR-4 > 100 µM | SF-539 > 100 µM | SR > 100 µM | 786-0 > 100 µM | Malme-3M > 100 µM | LOX IMVI > 100 µM | M19-MEL > 100 µM | SNB-19 > 100 µM | K562 80.5 µM | ACHN > 100 µM | NCI-H226 47.1 µM | KM12 > 100 µM | SK-MEL-2 > 100 µM | UO-31 48.8 µM

CCOC(=O)C1=C(O)C(=O)c2ccsc2C1=O
inactive: RXF 393 > 100 µM | OVCAR-4 > 100 µM | SF-539 > 100 µM | SR > 100 µM | 786-0 > 100 µM | Malme-3M > 100 µM | LOX IMVI > 100 µM | CAKI-1 > 100 µM | M19-MEL 20.6 µM | SNB-19 > 100 µM | K562 > 100 µM | ACHN > 100 µM | NCI-H226 > 100 µM | KM12 > 100 µM | SK-MEL-2 > 100 µM | UO-31 > 100 µM

Cc1cc(NS(=O)(=O)c2ccc(NC(=O)c3ccc(Cl)c4c(Nc5ccc(S(=O)(=O)N=C(N)N)cc5)c5ccccc5nc34)cc2)no1
inactive: RXF 393 19.2 µM | OVCAR-4 68.5 µM | SF-539 30.5 µM | SR 27.6 µM | 786-0 45.6 µM | Malme-3M > 100 µM | LOX IMVI 28.1 µM | M19-MEL 46.8 µM | SNB-19 39.7 µM | K562 39 µM | ACHN > 100 µM | KM12 40.6 µM | UO-31 > 100 µM

COC(=O)/C(=N\NC(=S)NN)C(C(=O)C(=O)Nc1ccccc1C(N)=O)c1nc2ccccc2nc1O (stereo not drawn)
inactive: RXF 393 > 100 µM | OVCAR-4 > 100 µM | SF-539 > 100 µM | SR > 100 µM | 786-0 > 100 µM | Malme-3M > 100 µM | CAKI-1 > 100 µM | M19-MEL > 100 µM | SNB-19 > 100 µM | K562 > 100 µM | ACHN > 100 µM | NCI-H226 > 100 µM | KM12 > 100 µM | SK-MEL-2 > 100 µM | UO-31 > 100 µM

CP(C)C.[Ag][I]
inactive: RXF 393 > 100 µM | OVCAR-4 18.2 µM | SF-539 > 100 µM | SR > 100 µM | 786-0 > 100 µM | Malme-3M 39.6 µM | LOX IMVI 25.5 µM | CAKI-1 > 100 µM | M19-MEL > 100 µM | SNB-19 > 100 µM | K562 > 100 µM | ACHN > 100 µM | NCI-H226 > 100 µM | KM12 > 100 µM | SK-MEL-2 > 100 µM | UO-31 > 100 µM

O=C1CCN2C(=Nc3cccc4cccc2c34)N1
inactive: RXF 393 > 100 µM | OVCAR-4 > 100 µM | SF-539 > 100 µM | SR > 100 µM | 786-0 26.1 µM | LOX IMVI > 100 µM | M19-MEL > 100 µM | SNB-19 > 100 µM | K562 > 100 µM | ACHN > 100 µM | NCI-H226 > 100 µM | UO-31 73.8 µM

Cc1nc(N)sc1C(=O)/C=C/c1ccc(/C=C/C(=O)c2sc(NC(=O)CCCCCCCCC(=O)Nc3nc(C)c(C(=O)/C=C/c4ccc(/C=C/C(=O)c5sc(N)nc5C)cc4)s3)nc2C)cc1
inactive: RXF 393 > 100 µM | OVCAR-4 > 100 µM | SF-539 > 100 µM | SR > 100 µM | 786-0 > 100 µM | Malme-3M > 100 µM | LOX IMVI > 100 µM | CAKI-1 60.4 µM | M19-MEL > 100 µM | SNB-19 > 100 µM | K562 > 100 µM | ACHN > 100 µM | KM12 > 100 µM | SK-MEL-2 > 100 µM | UO-31 > 100 µM

COc1cccc(-c2cc(O)c3ccccc3n2)c1
inactive: RXF 393 2.79 µM | OVCAR-4 > 100 µM | SF-539 3.57 µM | SR 5.5 µM | 786-0 5.25 µM | Malme-3M 3.89 µM | LOX IMVI 5.18 µM | M19-MEL 8.15 µM | SNB-19 6.82 µM | K562 4.72 µM | ACHN 6.92 µM | NCI-H226 6.89 µM | KM12 4.03 µM | SK-MEL-2 24.9 µM | UO-31 6.18 µM

CCOC(=O)C(NO)C(Sc1ccccc1)c1ccc(OC)cc1 (stereo not drawn)
inactive: RXF 393 23.9 µM | SF-539 > 100 µM | SR > 100 µM | 786-0 > 100 µM | Malme-3M > 100 µM | LOX IMVI > 100 µM | M19-MEL 69.2 µM | SNB-19 > 100 µM | ACHN 71.3 µM | NCI-H226 81.8 µM | KM12 78.5 µM | SK-MEL-2 > 100 µM | UO-31 68.5 µM
